Tests used:
[1] = Body weight in HFD-induced fatty liver rat model; assay type: in vivo, Male GK rats; details: for body weight increase compared with HFD alone: 6 weeks, HFD + drug versus HFD alone; for Body Weight, Pre: before feeding
From the text: Male GK rats (9 weeks of age, 6 rats per group) received HFD (containing 30% beef tallow) for 6 weeks.

[2] = test system: choline-deficient diet (CDD) rat model; test: Choline-deficient diet (CDD) rat model of NASH-like liver change; assay type: in vivo, Male Wistar rats; details: CDD mixed with 4% L-alanine for 4 weeks
From the text: Male Wistar rats (7 weeks of age, 5 rats per group) received CDD (Dyets Co.) for 4 weeks.
On the other hand, in the group of 5 rats received CDD mixed with 4% L-alanine for 4 weeks, one rat is normalized in liver weight (10.6 g).

[3] = test system: HFD-induced fatty liver rat model; test: Hepatic triglyceride contents in high-fat diet (HFD)-induced fatty liver rat model; assay type: in vivo, Male GK rats; details: diet mixed with 4% L-alanine for 6 weeks; one rat of 6, in the level of SD group
Protocol: It has been supposed that the increase of the amount of fat intake in the last few decades is one of the causes of the recent increase of the number of patients with NASH. Therefore, the effect of L-alanine on the hepatic triglyceride contents in the high-fat diet (hereinafter HFD)-induced fatty liver rat model.
Male GK rats (9 weeks of age, 6 rats per group) received HFD (containing 30% beef tallow) for 6 weeks. Triglyceride contents in the liver tissue was increased to 29.1 to 49.3 mg per gram of liver tissue, compared with those (14.1 to 24.2 mg) in the group fed with standard diet (containing 5% soy-been oil; hereinafter SD).
Pioglitazone is a drug, which acts as an insulin-sensitizer for the patients with diabetes. Recent clinical pilot studies raise the possibility of clinical utility of pioglitazone for NASH.
On the other hand, in the group of 6 rats received CDD mixed with 4% L-alanine for 6 weeks, one rat is reduced in the liver triglyceride contents (19.6 mg) in the level of SD group.

Row | SMILES | body weight increase compared with HFD alone [1] | Body Weight, Post (at 6 weeks) ([1]; after 6 weeks of HFD mixed with drug, means ± SD (n = 6)) [g] | Body Weight, Pre ([1]; means ± SD (n = 6)) [g] | liver weight ([2]; one rat of 5 (normalized), CDD alone 14.5 to 20.0 g) [g] | histological fat accumulation in the liver ([2]; the one rat of 5 with normalized liver weight) | liver triglyceride contents [3] [mg]
1 | C[C@H](N)C(=O)O [L-alanine] | not observed | 331.8 ± 20.5 | 219.8 ± 13.0 | 10.6 | not recognized | 19.6
2 | CCc1ccc(CCOc2ccc(CC3SC(=O)NC3=O)cc2)nc1 (centres unmarked) [pioglitazone, reference compound] | significantly more increased | – | 222.1 ± 9.9 | – | – | –

From patent US20060089412A1, “Pharmaceutical composition for the treatment of non-alcoholic fatty liver disease” (AJINOMOTO CO. INC., priority 2004, published 2006)
